Measurements from paper PMC3602143 (Bioorganic & medicinal chemistry letters, 2013).

Assays:
[1] = system: strain of T. gondii engineered to express the bacterial GlpT; settings: ref [22]; cited from earlier work
[2] = background statement; cited from earlier work
[3] = system: bacteria including E. coli; settings: ref [11]; cited from earlier work
T. gondii = T. gondii growth / proliferation; type: cell-based, Toxoplasma gondii; settings: previous method of ref [22]
[4] = target: T1, recombinant T. gondii DXR (TgDXR) (Toxoplasma gondii, UniProt S8ESX0); assay: TgDXR enzyme inhibition assay; type: biochemical; settings: average of acetyl analogs 8 and 9 vs 6 and 7
T1 sequence (S8ESX0 187-632): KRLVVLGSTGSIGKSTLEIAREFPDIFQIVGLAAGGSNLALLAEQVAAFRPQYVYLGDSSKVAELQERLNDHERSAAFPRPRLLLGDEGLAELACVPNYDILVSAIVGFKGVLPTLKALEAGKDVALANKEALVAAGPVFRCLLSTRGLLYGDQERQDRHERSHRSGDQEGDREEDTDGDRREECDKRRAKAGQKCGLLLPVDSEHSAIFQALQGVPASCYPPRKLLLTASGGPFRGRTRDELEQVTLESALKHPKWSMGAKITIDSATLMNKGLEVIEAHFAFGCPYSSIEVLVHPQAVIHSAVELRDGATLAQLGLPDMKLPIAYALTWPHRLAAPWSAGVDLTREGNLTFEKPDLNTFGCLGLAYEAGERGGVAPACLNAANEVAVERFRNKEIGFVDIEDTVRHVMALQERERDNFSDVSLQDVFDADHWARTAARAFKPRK

malaria parasites = settings: ref [16]; cited from earlier work
EcDXR = settings: read-out: Km of EcDXR; substrate DXP; ref [13]; cited from earlier work
[5] = system: Mycobacterium tuberculosis DXR; settings: read-out: Km of Mycobacterium tuberculosis DXR; substrate DXP; ref [23]; cited from earlier work
PfDXR = settings: read-out: Km of PfDXR; substrate DXP; ref [15]; cited from earlier work
[6] = substrate: CC(=O)[C@@H](O)[C@H](O)COP(=O)(O)O; assay: TgDXR enzyme inhibition assay; type: biochemical, Toxoplasma gondii; settings: other: DXP 10 to 450 μM, [Mg2+] = 4 mM, Michaelis-Menten fit; 30.0 °C

In the case of `O=CN(O)CCCP(=O)(O)O` [Compound 1, Fosmidomycin], the “killing of GlpT-expressing T. gondii” value [1] is given as “can effectively kill” and the half-life in plasma [2] is given as “very short”.

In the case of `O=c1ccc(-c2ccccc2)cn1O` [Compound 5], the antibacterial activity [3] is given as “broad antibacterial activity” and the “block of proliferation / activity against growth of T. gondii” value (T. gondii) is given as “does not block proliferation”.

In the case of `CC(=O)N(O)CCC(c1cccnc1)P(=O)(O)O` (stereo not drawn) [Compound 8], the “fold less activity against TgDXR than formyl analogs 6 and 7” value [4] is reported as ~ 11 fold.

With `CC(=O)N(O)CCC(c1ccncc1)P(=O)(O)O` (stereo not drawn) [Compound 9] the “fold less activity against TgDXR than formyl analogs 6 and 7” value [4] was ~ 11 fold.

In the case of `O=CN(O)CCC(c1ccc(Cl)c(Cl)c1)P(=O)(O)O` (stereo not drawn) [Compound 10], the antimalarial activities (malaria parasites) is listed as “potent”.

For `CC(=O)N(O)CCC(c1ccc(Cl)c(Cl)c1)P(=O)(O)O` (stereo not drawn) [Compound 11], the antimalarial activities (malaria parasites) is listed as “potent”.

In the case of `CC(=O)[C@@H](O)[C@H](O)COP(=O)(O)O` [DXP, 1-deoxy-D-xylulose-5-phosphate], the Km (EcDXR) is listed as 99 µM, the Km [5] is listed as 47 µM and the Km (PfDXR) is listed as 106 µM.

B1: recombinant T. gondii DXR (TgDXR) (Toxoplasma gondii ME49) (protein)
chain: KRLVVLGSTGSIGKSTLEIAREFPDIFQIVGLAAGGSNLALLAEQVAAFRPQYVYLGDSSKVAELQERLNDHERSAAFPRPRLLLGDEGLAELACVPNYDILVSAIVGFKGVLPTLKALEAGKDVALANKEALVAAGPVFRCLLSTRGLLYGDQERQDRHERSHRSGDQEGDREEDTDGDRREECDKRRAKAGQKCGLLLPVDSEHSAIFQALQGVPASCYPPRKLLLTASGGPFRGRTRDELEQVTLESALKHPKWSMGAKITIDSATLMNKGLEVIEAHFAFGCPYSSIEVLVHPQAVIHSAVELRDGATLAQLGLPDMKLPIAYALTWPHRLAAPWSAGVDLTREGNLTFEKPDLNTFGCLGLAYEAGERGGVAPACLNAANEVAVERFRNKEIGFVDIEDTVRHVMALQERERDNFSDVSLQDVFDADHWARTAARAFKPRK
B1 gave a Km [6] of 25.5 ± 3.7 µM.
